From US8975417B2, “Pyrazolopyrrolidine derivatives and their use in the treatment of disease” (Novartis AG, priority 2013, dated 2015)

Columns and labels:
[1] = system: K-562 cells; assay: Cell growth inhibition assay (CellTiter-Glo), K-562; assay type: cell-based, human; conditions: Homo sapiens, K562, read-out: K-562 TGI
Method: (§1) Cell Growth Inhibition Assay
(§2) The human leukemia cell lines MV-4-11, THP-1 and K-562 were employed to characterize the effect of BET inhibitors on cellular proliferation and viability. Cells were obtained from the American Type Culture Collection (ATCC) and cultured at 37° C. in a humidified 5% CO2 incubator in the following media: MV-4-11: DMEM high glucose (Animed #1-26F01-I), 10% FCS (Animed #2-01F26-I), 4 mM L-Glutamine (Animed #5-10K50), 1 mM Sodium Pyruvate (Animed # G03625P), 1× Penicillin-Streptomycin (Animed # F12478P); K-562: Iscove's MEM (Animed #1-28F16-I), 10% FCS (Animed #2-01F26-I), 4 mM L-Glutamine (Animed #5-10K50), 1× Penicillin-Streptomycin (Animed # F12478P); THP-1: RPMI-1640 (Animed #1-41F01-I), 10% FCS (Animed #2-01F26-I), 2 mM L-Glutamine (Animed #5-10K50), 10 mM HEPES (Animed #5-31F100), 1 mM Sodium Pyruvate (Animed # G03625P), 1× Penicillin-Streptomycin (Animed # F12478P). The AML lines MV-4-11 and THP-1 are very sensitive to BET inhibitors and show massive cell death upon BET inhibition (Zuber et al., Nature, 478 (2011), 524-8). Compound-mediated suppression of cell proliferation/viability was assessed by quantification of cellular ATP levels using the CellTiter-Glo (CTG) reagent (Promega). Briefly, cells were seeded in 20 μl fresh medium into 384-well plates, followed by addition of 5 μL medium containing compound dilutions at 5-fold their final intended concentration. Dose-response effects were assessed by 3-fold serial dilutions of the test compound, starting at 10 μM. Following incubation of the cells for days at 37° C. and 5% CO2, the effect of inhibitors on cell viability was quantified following addition of 20 μl CTG and luminescence quantification (integration time: 100 ms) as per vendor manual, using a correspondingly equipped Tecan M200 multi-mode platereader (TECAN, Switzerland). For data analysis, the assay background value determined in wells containing medium, but no cells, was subtracted from all data points. To enable differentiation of cytotoxic from cytostatic compounds, the number of viable cells is assessed relative to that observed at the time of compound addition using a separate cell plate (day 0). The effect of a particular test compound concentration on cell proliferation/viability is expressed as percentage of the background- and day 0-corrected luminescence reading obtained for cells treated with vehicle only (DMSO, 0.1% final concentration), which is set as 100%, whereas that luminescence reading for wells containing medium is set as −100%. Compound concentrations leading to half-maximal (IC50) and total growth inhibition (TGI) were determined using standard four parameter curve fitting.

[2] = system: MV-4-11 cells; assay: Cell growth inhibition assay (CellTiter-Glo), MV-4-11; assay type: cell-based; conditions: Homo sapiens, MV4-11, read-out: MV-4-11 TGI
Method: as §1, §2

[3] = target: His-Brd2(60-472) (Homo sapiens (Human), UniProt P25440); assay: TR-FRET in-vitro binding assay for BRD2; conditions: biochemical
How it was run: (§3)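 Bromodomain protein (45 nM in its addition solution) and tetra-acetylated histone H4 peptide (AcK5/8/12/16; 60 nM in its addition solution) were incubated with compounds for 35 min at 30 °C in 50 mM HEPES pH 7.5, 50 mM NaCl, 0.005% Tween20, 0.1% BSA. Eu-anti-His6 plus streptavidin-allophycocyanin detection followed, with TR-FRET read-out.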

[4] = system: THP-1 cells; assay: Cell growth inhibition assay (CellTiter-Glo), THP-1; assay type: cell-based; conditions: Homo sapiens, read-out: THP-1 TGI
Method: as §1, §2

[5] = target: His-Brd4(44-477) (Homo sapiens (Human), UniProt O60885); assay: TR-FRET in-vitro binding assay for BRD4; conditions: biochemical
How it was run: as §3

[6] = target: His-Brd3(20-477) (Homo sapiens (Human), UniProt Q15059); assay: TR-FRET in-vitro binding assay for BRD3; conditions: biochemical
How it was run: as §3

[7] = target: His-CREBBP (1081-1197) bromodomain (Homo sapiens (Human), UniProt Q92793); assay: AlphaScreen in-vitro binding assay for CREBBP; conditions: biochemical
How it was run: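 Ni-chelate acceptor and streptavidin donor beads (45 µg/mL each, in 50 mM HEPES pH 7.5, 150 mM NaCl, 0.02% BSA) were then added for 60 min at room temperature. IC50 came from 8-point non-linear regression.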

Sequence of His-Brd2(60-472) (P25440 60-472): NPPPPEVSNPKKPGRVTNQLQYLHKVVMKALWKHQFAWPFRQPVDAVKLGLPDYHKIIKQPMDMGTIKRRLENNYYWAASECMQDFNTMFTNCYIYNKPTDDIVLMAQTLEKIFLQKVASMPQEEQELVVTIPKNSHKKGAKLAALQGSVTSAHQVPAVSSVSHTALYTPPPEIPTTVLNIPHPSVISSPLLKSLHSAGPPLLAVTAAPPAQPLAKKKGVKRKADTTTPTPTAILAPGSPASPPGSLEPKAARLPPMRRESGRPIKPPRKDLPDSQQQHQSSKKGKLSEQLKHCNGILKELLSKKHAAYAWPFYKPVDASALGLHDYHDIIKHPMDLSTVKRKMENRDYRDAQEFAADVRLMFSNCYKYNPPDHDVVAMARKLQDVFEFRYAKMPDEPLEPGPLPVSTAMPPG
Sequence of His-Brd3(20-477) (Q15059 20-477): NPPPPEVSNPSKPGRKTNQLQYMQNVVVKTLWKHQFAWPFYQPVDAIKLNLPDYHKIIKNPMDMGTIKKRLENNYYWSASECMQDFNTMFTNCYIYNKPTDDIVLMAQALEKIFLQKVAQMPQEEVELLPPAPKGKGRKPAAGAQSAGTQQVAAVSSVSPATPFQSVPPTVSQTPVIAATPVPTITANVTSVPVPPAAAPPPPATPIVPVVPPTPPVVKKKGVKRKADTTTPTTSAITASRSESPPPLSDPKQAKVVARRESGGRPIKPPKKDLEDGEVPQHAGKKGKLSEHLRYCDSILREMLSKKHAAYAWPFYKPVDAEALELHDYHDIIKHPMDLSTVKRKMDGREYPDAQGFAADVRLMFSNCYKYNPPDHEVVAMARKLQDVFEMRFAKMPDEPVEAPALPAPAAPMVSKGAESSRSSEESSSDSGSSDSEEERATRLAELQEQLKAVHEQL
Sequence of His-CREBBP (1081-1197) bromodomain (Q92793 1081-1197): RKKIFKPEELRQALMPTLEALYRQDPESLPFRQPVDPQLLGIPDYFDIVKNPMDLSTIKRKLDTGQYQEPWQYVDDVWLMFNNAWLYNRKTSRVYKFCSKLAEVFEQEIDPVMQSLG

| Structure (SMILES) | IC (total growth inhibition) [1] | IC (total growth inhibition) [2] | IC50 [3] | IC (total growth inhibition) [4] | IC50 [5] | IC50 [6] | IC50 [7] |
| --- | --- | --- | --- | --- | --- | --- | --- |
| Cc1nn(C(C)C)c2c1[C@@H](c1ccc(Cl)cc1F)N(c1cc(C)c3nnc(C)n3c1)C2=O [Example 189, (S)-4-(4-chloro-2-fluorophenyl)-5-(3,8-dimethyl-[1,2,4]triazolo[4,3-a]pyridin-6-yl)-1-isopropyl-3-methyl-4,5-dihydropyrrolo[3,4-c]pyrazol-6(1H)-one] | > 10 µM | 0.0269 µM | 40 nM | 0.0261 µM | 29 nM | 33 nM | 3800 nM |
| Cc1nn(C)c2c1C(c1ccc(Cl)cc1)N(c1cc(C)c(=O)n(C)c1)C2=O (centres unmarked) [Example 57, 4-(4-chlorophenyl)-5-(1,5-dimethyl-6-oxo-1,6-dihydropyridin-3-yl)-1,3-dimethyl-4,5-dihydropyrrolo[3,4-c]pyrazol-6(1H)-one] | > 10 µM | 0.109 µM | 270 nM | 0.24 µM | 120 nM | 130 nM | 6800 nM |
| COCc1nn(C2CC2)c2c1[C@@H](c1ccc(Cl)cc1)N(c1cc(C)c(=O)n(C)c1)C2=O [Example 162, (R)-4-(4-chlorophenyl)-1-cyclopropyl-5-(1,5-dimethyl-6-oxo-1,6-dihydropyridin-3-yl)-3-(methoxymethyl)-4,5-dihydropyrrolo[3,4-c]pyrazol-6(1H)-one] | > 10 µM | 0.0903 µM | 39 nM | 0.173 µM | 41 nM | 42 nM | 3700 nM |
| COc1ncc(-n2nc3c(c2C(C)C)C(c2ccc(Cl)cc2)N(c2cc(C)c4onc(C)c4c2)C3=O)c(OC)n1 (centres unmarked) [Example 46, 4-(4-chlorophenyl)-2-(2,4-dimethoxypyrimidin-5-yl)-5-(3,7-dimethylbenzo[d]-isoxazol-5-yl)-3-isopropyl-4,5-dihydropyrrolo[3,4-c]pyrazol-6(2H)-one] | > 10 µM | 0.166 µM | 130 nM | 0.323 µM | 87 nM | 100 nM | 4700 nM |
| COc1nccc(-n2nc(C)c3c2C(=O)N(c2cc(C)c(=O)n(C)c2)C3c2ccc(Cl)cc2)n1 (centres unmarked) [Example 59, 4-(4-chlorophenyl)-5-(1,5-dimethyl-6-oxo-1,6-dihydropyridin-3-yl)-1-(2-methoxypyrimidin-4-yl)-3-methyl-4,5-dihydropyrrolo[3,4-c]pyrazol-6(1H)-one] | > 10 µM | 0.325 µM | 610 nM | 0.598 µM | 390 nM | 480 nM | 7300 nM |
| Cc1n[nH]c2c1[C@@H](c1ccc(Cl)cc1)N(c1cc(C)c3nnc(C)n3c1)C2=O [Example 165, (R)-4-(4-chlorophenyl)-5-(3,8-dimethyl-[1,2,4]triazolo[4,3-a]pyridin-6-yl)-3-methyl-4,5-dihydropyrrolo[3,4-c]pyrazol-6(1H)-one] | > 10 µM | 0.0396 µM | 17 nM | 0.0921 µM | 15 nM | 23 nM | 4600 nM |
| Cc1nn(C(C)C)c2c1C(c1ccc(Cl)cc1F)N(c1cc(C)c3nnc(C)n3c1)C2=O (centres unmarked) [Example 168, 4-(4-chloro-2-fluorophenyl)-5-(3,8-dimethyl-[1,2,4]triazolo[4,3-a]pyridin-6-yl)-1-isopropyl-3-methyl-4,5-dihydropyrrolo[3,4-c]pyrazol-6(1H)-one] | > 10 µM | 0.0403 µM | 71 nM | 0.0949 µM | 59 nM | 30 nM | 11000 nM |
| Cn1cc(N2C(=O)c3c(cnn3C3CC3)C2c2ccc(Cl)cc2)cc(Cl)c1=O (centres unmarked) [Example 35, 5-(5-chloro-1-methyl-6-oxo-1,6-dihydropyridin-3-yl)-4-(4-chlorophenyl)-1-cyclopropyl-4,5-dihydropyrrolo[3,4-c]pyrazol-6(1H)-one] | > 10 µM | 0.23 µM | 140 nM | 0.427 µM | 150 nM | 160 nM | 7400 nM |
| Cc1nn(C(C)C)c2c1C(c1ccc(Cl)cc1)N(c1cc(Cl)c(=O)n(C)c1)C2=O (centres unmarked) [Example 66, 5-(5-chloro-1-methyl-6-oxo-1,6-dihydropyridin-3-yl)-4-(4-chlorophenyl)-1-isopropyl-3-methyl-4,5-dihydropyrrolo[3,4-c]pyrazol-6(1H)-one] | > 10 µM | 0.106 µM | 160 nM | 0.248 µM | 120 nM | 110 nM | 2600 nM |
| CCc1nn(-c2cnc(OC)nc2OC)c2c1C(c1ccc(Cl)cc1)N(c1cc(C)c(=O)n(C)c1)C2=O (centres unmarked) [Example 60, 4-(4-chlorophenyl)-1-(2,4-dimethoxypyrimidin-5-yl)-5-(1,5-dimethyl-6-oxo-1,6-dihydropyridin-3-yl)-3-ethyl-4,5-dihydropyrrolo[3,4-c]pyrazol-6(1H)-one] | > 10 µM | 0.154 µM | 160 nM | 0.302 µM | 140 nM | 120 nM | 8800 nM |
| Cc1cc(N2C(=O)c3c(cnn3C(C)C)C2c2ccc(Cl)cc2)cn(C)c1=O (centres unmarked) [Example 36, 4-(4-chlorophenyl)-5-(1,5-dimethyl-6-oxo-1,6-dihydropyridin-3-yl)-1-isopropyl-4,5-dihydropyrrolo[3,4-c]pyrazol-6(1H)-one] | > 10 µM | 0.0927 µM | 57 nM | 0.191 µM | 66 nM | 59 nM | 3600 nM |
| Cc1nn(C2CC2)c2c1C(c1ccc(Cl)cc1)N(c1cn(C)c(=O)c3[nH]ccc13)C2=O (centres unmarked) [Example 160, 4-(4-(4-chlorophenyl)-1-cyclopropyl-3-methyl-6-oxopyrrolo[3,4-c]pyrazol-5(1H,4H,6H)-yl)-6-methyl-1H-pyrrolo[2,3-c]pyridin-7(6H)-one] | > 10 µM | 0.102 µM |  | 0.107 µM | 30 nM | 52 nM | 4400 nM |
| Cc1cc(N2C(=O)c3c(c(CF)nn3C3CC3)C2c2ccc(Cl)cc2)cn2c(C)nnc12 (centres unmarked) [Example 159, 4-(4-chlorophenyl)-1-cyclopropyl-5-(3,8-dimethyl-[1,2,4]triazolo[4,3-a]pyridin-6-yl)-3-(fluoromethyl)-4,5-dihydropyrrolo[3,4-c]pyrazol-6(1H)-one] | > 10 µM | 0.0812 µM |  | 0.0855 µM | 46 nM | 50 nM | 6600 nM |
| COc1ccccc1-n1nc(C)c2c1C(=O)N(c1cc(C)c3nnc(C)n3c1)C2c1ccc(F)cc1F (centres unmarked) [Example 177, 4-(2,4-difluorophenyl)-5-(3,8-dimethyl-[1,2,4]triazolo[4,3-a]pyridin-6-yl)-1-(2-methoxyphenyl)-3-methyl-4,5-dihydropyrrolo[3,4-c]pyrazol-6(1H)-one] | > 10 µM | 0.114 µM |  | 0.153 µM | 16 nM | 30 nM | 11000 nM |
